Assays:
[1] = system: AP-1; experiment: Inhibition of AP-1 activation by TNF α stimulation (pAP-1-Luc reporter, HeLa); format: cell-based, human; conditions: TNF-α (40 ng/ml), 4 hours; for Inhibitory Ratio of AP-1 Activation(%) Drug Concentration 1 μg/mL: test compound 1 μg/mL; for Inhibitory Ratio of AP-1 Activation(%) Drug Concentration 10 μg/mL: test compound 10 μg/mL
Description: Measurement of Inhibition of AP-1 Activation by TNF α Stimulation
Using a transfection reagent (Effectene; QIAGEN), the human uterine cancer cell strain HeLa was transfected with a plasmid (pAP-1-Luc Reporter Plasmid: STRATAGENE) according to the QIAGEN's protocol, which was integrated with an oligonucleotide having seven tandem copies of AP-1 binding sequences (TGACTAA) on a upstream region of firefly luciferase gene (Luc), and the cells were incubated for 6 to 24 hours. Then, the cells were added with TNF-α (40 ng/ml) in the presence or absence of a test compound and incubated for 4 hours, and intracellular luciferase activity was measured by using PicaGene LT(TOYO INK MFG Co., Ltd.) and chemical luminescence measurement apparatus(SPECTRAFluor Plus; TECAN). The inhibitory ratio was obtained as a ratio relative to the value of the luciferase activity in the absence of the test compound.

[2] = system: NFAT; experiment: Inhibition of NFAT activation (2) (NFAT Luc reporter, HepG2); format: cell-based, human; conditions: HepG2, TPA (200 nM) and ionomycin (2 μM); for Inhibition Ratio of NFAT Activation(%) Drug Concentration 1 μM: test compound 1 μM; for Inhibition Ratio of NFAT Activation(%) Drug Concentration 1 μg/mL: test compound 1 μg/mL
Description: Measurement of Inhibition of NFAT Activation (2)
Using a transfection reagent (Effectene; QIAGEN), the human hepatoma cell strain HepG2 was transfected with a plasmid (NFAT Luc) which was integrated with an NFAT binding sequence on a upstream region of the firefly luciferase gene (Luc) according to the QIAGEN's protocol, and the cells were incubated for 20 to 24 hours.
After incubation of the cells in the presence or absence of a test compound for 4 hours, TPA (200 nM) and ionomycin (2 μM) were added and the cells were incubated for 20 to 24 hours.
Then, intracellular luciferase activity was measured by using PicaGene LT(TOYO INK MFG Co., Ltd.) and a chemical luminescence measurement apparatus (SPECTRAFluor Plus; TECAN).
The inhibitory ratio was measured as a ratio relative to the value of the luciferase activity in the absence of the test compound.

[3] = system: AP-1; experiment: Inhibition of AP-1 activation by forced expression of MEKK-1 (pAP-1-Luc reporter, HepG2); format: cell-based, human; conditions: HepG2, MEKK-1 expression plasmid, 24 hours; for Inhibitory Ratio of AP-1 Activation(%) Drug Concentration 1 μM: test compound 1 μM; for Inhibitory Ratio of AP-1 Activation(%) Drug Concentration 1 μg/mL: test compound 1 μg/mL
From the text: Measurement of Inhibition of AP-1 Activation by Forced Expression of MEKK-1
Using a transfection reagent (Effectene; QIAGEN), the human hepatoma cell strain HepG2 was cotransfected with a plasmid (pAP-1-Luc Reporter Plasmid: STRATAGENE), integrated with an oligonucleotide having seven tandem copies of AP-1 binding sequences (TGACTAA) on an upstream region of the firefly luciferase gene (Luc), and the MEKK-1 expression plasmid (pFCMEKK: STRATAGENE) according to the QIAGEN's protocol, and the cells were incubated for 20 to 24 hours. Then, after the cells were incubated in the presence or absence of a test compound for 24 hours, intracellular luciferase activity was measured by using PicaGene LT(TOYO INK MFG Co., Ltd.) and a chemical luminescence measurement apparatus (SPECTRAFluor Plus; TECAN). The inhibitory ratio was measured as a ratio relative to the value of the luciferase activity in the absence of the test compound.

[4] = system: NFAT; experiment: Inhibition of NFAT activation (1) (NFAT-LacZ reporter, Jurkat cell); format: cell-based; conditions: A23187 and PMA, 4 hours
Description: Measurement of Inhibition of NFAT Activation (1)
A Jurkat cell transfected with a reporter plasmid (NFAT-LacZ), which was integrated with the NFAT binding sequence on a upstream region of the β-galactosidase gene (LacZ) according to the method described in the “Proceedings of The National Academy of Sciences of The United States of America” 1991, Vol. 88, No. 9, p. 3972-3976, was incubated for 4 hours in the Modified RPMI 1640 medium in the presence of A23187 as a calcium ionophore and PMA (Phorbol 12-myristate 13-acetate), and in the presence or absence of a test compound. Then, intracellular β-galactosidase activity was measured by the method described in the “Proceedings of The National Academy of Sciences of The United States of America” 1991, Vol. 88, No. 9, p. 3972-3976. The inhibitory ratio was obtained as a ratio relative to the value of the β-galactosidase activity in the absence of the test compound.

| Compound | Inhibitory Ratio of AP-1 Activation(%) Drug Concentration 1 μg/mL [1] [%] | Inhibitory Ratio of AP-1 Activation(%) Drug Concentration 10 μg/mL [1] [%] | Inhibition Ratio of NFAT Activation(%) Drug Concentration 1 μg/mL [2] [%] | Inhibitory Ratio of AP-1 Activation(%) Drug Concentration 1 μg/mL [3] [%] | also measured |
| --- | --- | --- | --- | --- | --- |
| CCOC(=O)c1sc(NC(=O)c2cc(Br)ccc2O)nc1-c1ccccc1 [compound 209, 2-(5-bromo-2-hydroxybenzoyl)amino-4-phenylthiazole-5-carboxylic acid ethyl ester] | 21.7 | 55.3 | – | – | – |
| CC(=O)Oc1ccccc1C(=O)Nc1cc(Cl)cc(Cl)c1 [compound 172, 2-acetoxy-N-(3,5-dichlorophenyl)benzamide] | – | – | – | – | melting point: 218 to 219 °C |
| CC(C)(C)C(=O)c1sc(NC(=O)c2cc(Cl)ccc2O)nc1C(C)(C)C [compound 195, 5-Chloro-N-{4-[(1,1-dimethyl)ethyl]-5-[(2,2-dimethyl)propionyl]thiazol-2-yl}-2-hydroxybenzamide] | – | – | 86.7 | 95.5 | Inhibition Ratio of NFAT Activation(%) Drug Concentration 1 μM [2]: 96.8%; Inhibitory Ratio of AP-1 Activation(%) Drug Concentration 1 μM [3]: 91.2% |
| O=C(Nc1cc(C(F)(F)F)cc(C(F)(F)F)c1)c1cc(I)ccc1O [Compound No. 52, N-[3,5-bis(trifluoromethyl)phenyl]-2-hydroxy-5-iodobenzamide] | 25.4 | 82.4 | – | – | – |
| O=C(Nc1cc(C(F)(F)F)cc(C(F)(F)F)c1)c1cc(-c2ccccc2)ccc1O [Compound No. 67] | 18.1 | 60.9 | >99.9 | 94.8 | – |
| CC(C)(C)c1nc(NC(=O)c2cc(Br)ccc2O)sc1N1CCOCC1 [compound 199, 5-Bromo-N-{4-[(1,1-dimethyl)ethyl]-5-morpholinothiazol-2-yl}-2-hydroxybenzamide] | – | – | >99.9 | 70.6 | – |
| O=C(Nc1cc(C(F)(F)F)cc(C(F)(F)F)c1)c1cc(C#Cc2ccccc2)ccc1O [Compound No. 65, N-[3,5-bis(trifluoromethyl)phenyl]-2-hydroxy-5-(phenylethynyl)benzamide] | – | 44.1 | – | – | – |
| O=C(Nc1cc(C(F)(F)F)cc(C(F)(F)F)c1)c1cc(Cl)ccc1O [Compound No. 50, N-[3,5-Bis(trifluoromethyl)phenyl]-5-chloro-2-hydroxybenzamide] | 42.4 | 89.1 | 99.5 | 99.4 | Inhibitory Ratio of NFAT Activation(%) Drug Concentration 1 μM ([4]; test compound 1 μM): 70%; Inhibitory Ratio of NFAT Activation(%) Drug Concentration 10 μM ([4]; test compound 10 μM): 100%; Inhibition Ratio of NFAT Activation(%) Drug Concentration 1 μM [2]: 94.8%; Inhibitory Ratio of AP-1 Activation(%) Drug Concentration 1 μM [3]: 90.7% |
| CC(C)(C)c1nc(NC(=O)c2cc(Br)ccc2O)sc1N1CCN(c2ccccc2)CC1 [compound 201, 5-Bromo-N-{4-[(1,1-dimethyl)ethyl]-5-(4-phenylpiperazin-1-yl)thiazol-2-yl}-2-hydroxybenzamide] | – | – | >99.9 | 79.1 | – |
| O=C(Nc1cc(C(F)(F)F)cc(C(F)(F)F)c1)c1cc(-n2cccc2)ccc1O [Compound No. 71] | – | – | >99.9 | 98.0 | – |
| CCOC(=O)c1sc(NC(=O)c2cc(-c3cccs3)ccc2O)nc1-c1ccccc1 [compound 223, 2-[2-Hydroxy-5-(2-thienyl)benzoyl]amino-4-phenylthiazole-5-carboxylic acid ethyl ester] | – | 7.0 | – | – | – |
| CC(C)(C)c1ccc(O)c(C(=O)Nc2cc(C(F)(F)F)cc(C(F)(F)F)c2)c1 [Compound No. 56, N-[3,5-Bis(trifluoromethyl)phenyl]-5-[(1,1-dimethyl)ethyl]-2-hydroxybenzamide] | – | – | 99.7 | 96.3 | Inhibition Ratio of NFAT Activation(%) Drug Concentration 1 μM [2]: 88.9%; Inhibitory Ratio of AP-1 Activation(%) Drug Concentration 1 μM [3]: 82.6% |
